Experiments:
Type in all cases: cell-based
[1] = tested on: human Duchenne muscular dystrophy (DMD) muscle tissue (mBAM); experiment: MFAS fatigue assay of human DMD mBAMs; conditions: low concentrations, FIGS. 10A-10C
Experimental: (§1) High glucose tissue culture medium (4.5 g/l) was used in all experiments to maintain glucose levels well above normal human blood plasma levels (0.9 to 1.8 g/l) and, thereby, minimize drug action through increased glucose availability to the muscle cells. Varying concentrations of metformin (Sigma-Aldrich Cat. No. D15,095-9; 1,1-dimethylbiguanide hydrochloride) were added to tissue culture medium of mBAMs when the mBAMs had reached a plateau of maximal tetanic force, which was measured in a MyoForce Analysis System (MFAS™) 24 hours later. Every 24 hours, fresh metformin was added to fresh tissue culture medium, and tetanic forces were measured every 24 hours for 3-4 days. Fatigue was assayed after 3-4 days of metformin treatment by 15-20 repetitive tetanic stimulations of each mBAM at 14V, 60 Hz for 2 seconds every 4-5 seconds. Force is determined after each stimulation and compared to the initial force determined after the first stimulation relative to untreated controls. (Mean±S.E.M. of 3-8 samples per group was calculated and statistical analyses performed by t-tests.)
The immortalized muscle cells were tissue engineered into contractile muscle tissue (mBAMs), and muscle force and fatigue were measured as described above. High glucose tissue culture medium (4.5 g/l) was used to maintain glucose levels well above normal human blood plasma levels (0.9 to 1.8 g/l) and, thereby, minimize drug action through increased glucose availability to the muscle cells. […] Every 24 hours, fresh biguanide was added in fresh medium and tetanic force measured for a total of 3-4 days.

[2] = tested on: normal human muscle tissue (mBAM); experiment: MFAS tetanic force of mBAMs from normal human vastus lateralis muscle cells; conditions: 3-4 days of exposure, FIGS. 7A-7D
Experimental: as §1

[3] = tested on: mdx murine muscle tissue (mBAM); experiment: MFAS maximal tetanic force of mBAMs from mdx mouse muscle cells; conditions: low concentrations experiment, four days of exposure, FIG. 4A
Source text: (§2) Conditionally immortalized skeletal muscle cells from the mdx mouse muscle (Morgan et al., Dev Biol. 162: 486-498, 1994) were tissue engineered into contractile muscle tissue (mBAMs), as described herein. (See also, e.g., Vandenburgh et al., Muscle and Nerve 37: 438-447, 2008; Vandenburgh et al., Treat NMD Meeting, 2009). Briefly, several hundred thousand proliferating myoblasts were mixed with a solution of extracellular matrix (collagen or fibrin) and pipetted into custom wells containing two flexible “posts” (FIG. 1A). The cell/matrix mixture gelled around the tops of the posts, forming a defined tubular structure (FIG. 1B). […] Maximal tetanic force (i.e., muscle strength) was measured by imaging the deflection of the attachment posts and converting the distance of deflection into force, as illustrated in FIGS. 2A-2B.
(§3) High glucose tissue culture medium (4.5 g/l) was used in all experiments to maintain glucose levels well above normal human blood plasma levels (0.9 to 1.8 g/l) and, thereby, minimize drug action through increased glucose availability to the muscle cells. Varying concentrations of metformin (Sigma-Aldrich Cat. No. D15,095-9; 1,1-dimethylbiguanide hydrochloride) were added to tissue culture medium of mBAMs when the mBAMs had reached a plateau of maximal tetanic force, which was measured in a MyoForce Analysis System (MFAS™) 24 hours later. […]

[4] = tested on: mdx murine skeletal muscle tissue (mBAM); experiment: MFAS fatigue assay (repetitive tetanic stimulation) of mdx mouse mBAMs; conditions: repetitive tetanic stimulation after 3-4 days of treatment, FIG. 4B
Source text: as §2, §3

[5] = tested on: normal mouse skeletal muscle tissue (mBAM); experiment: MFAS tetanic force of mBAMs from normal mouse leg muscle cells
Experimental: as §1
High glucose tissue culture medium (4.5 g/l) was used in all experiments to maintain glucose levels well above normal human blood plasma levels (0.9 to 1.8 g/l) and, thereby, minimize drug action through increased glucose availability to the muscle cells.

[6] = tested on: human Duchenne muscular dystrophy (DMD) muscle tissue (mBAM); experiment: MFAS tetanic force of mBAMs from immortalized Duchenne muscular dystrophy muscle cells; conditions: 3-4 days of exposure, FIGS. 9A, 9B, 9D
Experimental: as §1
The immortalized muscle cells were tissue engineered into contractile muscle tissue (mBAMs), and muscle force and fatigue were measured as described above. […] Every 24 hours, fresh biguanide was added in fresh medium and tetanic force measured for a total of 3-4 days.

Row | Structure (SMILES) | effect on the rate of muscle fatigue with repetitive stimulations [1] | concentrations that increased tetanic force generated by the muscle tissue [2] | concentration that significantly increased maximal tetanic force generated by mBAM muscle tissue [3] [µg/mL] | concentration that significantly decreased the rate of muscle fatigue [4] [µg/mL] | concentration that increased tetanic force generated by the muscle tissue ([5]; 3-4 days of exposure, FIGS. 5A-5B) [µg/mL] | concentrations that increased tetanic force generated by the muscle tissue [6] [µg/mL] | concentration that significantly increased tetanic force ([5]; after 3 days of treatment, FIG. 5C) [µg/mL]
1 | CCCCNC(=N)NC(=N)N [buformin, Buformin] | decreased the rate of muscle fatigue | less than 0.1 μg/ml | – | – | – | – | –
2 | CN(C)C(=N)NC(=N)N [metformin, 1,1-dimethylimido-dicarbonimidic diamide] | decreased the rate of muscle fatigue | – | 0.0006 | 0.000001 | 0.0006 | – | –
3 | N=C(N)NC(=N)NCCc1ccccc1 [phenformin, Phenformin] | decreased the rate of muscle fatigue | – | – | – | – | – | –
4 | CC(C)NC(=N)NC(=N)Nc1ccc(Cl)cc1 [proguanil, 1-(4-chlorophenyl)-5-isopropyl-biguanide] | – | less than 0.0001 μg/ml | – | – | – | ≤ 0.00006 | 0.001

Reference: patent US20130217778A1, “METHODS AND COMPOSITIONS FOR THE IMPROVEMENT OF SKELETAL MUSCLE FUNCTION IN A MAMMAL” (priority 2010, published 2013)
